Measurements as given in patent US7700782B2, “Compounds 569” (AstraZeneca AB, priority 2007, dated 2010).
Counter-ions that a name gives are not always drawn.

Target: T1, Adrenergic β2 (Homo sapiens, UniProt P07550)
T1 construct: Adherent H292 cells were removed from tissue culture flasks; endogenous in cells; host or cells: H292 cells
Assay: Adrenergic β2 mediated cAMP production in H292 cells (AlphaScreen cAMP detection)
Type: cell-based
Conditions: Intrinsic Activity, fraction relative to the maximum activity determined for formoterol
Method in brief: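 H292 cells, 5000/well, preincubated 10 min with rolipram (final 300 μM, 1.6% DMSO) in HEPES pH 7.4 HBSS, then compound 60 min at room temperature. Lysate cAMP quantified by AlphaScreen against a cAMP standard curve. pEC50 and intrinsic activity (fraction of formoterol maximum) from four-parameter logistic fits.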

T1 sequence (P07550 whole entry): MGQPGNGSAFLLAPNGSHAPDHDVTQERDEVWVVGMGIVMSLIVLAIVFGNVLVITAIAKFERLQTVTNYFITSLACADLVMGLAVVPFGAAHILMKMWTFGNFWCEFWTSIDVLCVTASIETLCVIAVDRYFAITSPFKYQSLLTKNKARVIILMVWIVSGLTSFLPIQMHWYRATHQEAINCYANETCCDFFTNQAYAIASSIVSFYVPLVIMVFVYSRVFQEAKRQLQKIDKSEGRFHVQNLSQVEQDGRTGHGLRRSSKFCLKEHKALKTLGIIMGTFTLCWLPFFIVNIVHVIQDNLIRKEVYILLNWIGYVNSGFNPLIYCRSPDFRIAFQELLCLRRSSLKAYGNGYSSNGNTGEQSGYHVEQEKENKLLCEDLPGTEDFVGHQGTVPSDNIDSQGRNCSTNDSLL

| β2 Int Act | SMILES |
| --- | --- |
| 0.82 | NS(=O)(=O)c1ccc(CCNCCC(=O)N(CCNCCc2ccc(O)c3[nH]c(=O)sc23)C2CCCCC2)cc1 [Example 69, N^3-{2-[4-(Aminosulfonyl)phenyl]ethyl}-N^1-cyclohexyl-N^1-(2-{[2-(4-hydroxy-2-oxo-2,3-dihydro-1,3-benzothiazol-7-yl)ethyl]amino}ethyl)-β-alaninamide bis-trifluoroacetic acid salt] |
| 0.84 | COc1cccc(CCNCCC(=O)N(CCNCCc2ccc(O)c3[nH]c(=O)sc23)C2CCCCC2)c1 [Example 70, N^1-Cyclohexyl-N^1-(2-{[2-(4-hydroxy-2-oxo-2,3-dihydro-1,3-benzothiazol-7-yl)ethyl]amino}ethyl)-N^3-[2-(3-methoxyphenyl)ethyl]-β-alaninamide bis-trifluoroacetic acid salt] |
| 0.97 | O=C(CCNCCc1cccc(O)c1)N(CCNCCc1ccc(O)c2[nH]c(=O)sc12)C1CCCCC1 [Example 71, N^1-Cyclohexyl-N^1-(2-{[2-(4-hydroxy-2-oxo-2,3-dihydro-1,3-benzothiazol-7-yl)ethyl]amino}ethyl)-N^3-[2-(3-hydroxyphenyl)ethyl]-β-alaninamide bis-trifluoroacetic acid salt] |
| 0.89 | O=C(CCNCCc1ccc(Cl)s1)N(CCNCCc1ccc(O)c2[nH]c(=O)sc12)C1CCCCC1 [Example 72, N^3-[2-(5-Chloro-2-thienyl)ethyl]-N^1-cyclohexyl-N^1-(2-{[2-(4-hydroxy-2-oxo-2,3-dihydro-1,3-benzothiazol-7-yl)ethyl]amino}ethyl)-β-alaninamide bis-trifluoroacetic acid salt] |
| 0.85 | O=C(CCNCCc1ccc(F)c(F)c1)N(CCNCCc1ccc(O)c2[nH]c(=O)sc12)C1CCCCC1 [Example 73, N^1-Cyclohexyl-N^3-[2-(3,4-difluorophenyl)ethyl]-N^1-(2-{[2-(4-hydroxy-2-oxo-2,3-dihydro-1,3-benzothiazol-7-yl)ethyl]amino}ethyl)-β-alaninamide bis-trifluoroacetic acid salt] |
| 0.79 | O=C(CCNC[C@@H](O)c1ccccc1)N(CCNCCc1ccc(O)c2[nH]c(=O)sc12)C1CCCCC1 [Example 74, N^1-Cyclohexyl-N^1-(2-{[2-(4-hydroxy-2-oxo-2,3-dihydro-1,3-benzothiazol-7-yl)ethyl]amino}ethyl)-N^3-[(2S)-2-hydroxy-2-phenylethyl]-β-alaninamide bis-trifluoroacetic acid salt] |
| 0.91 | O=C(CCNC[C@H](O)c1ccccc1)N(CCNCCc1ccc(O)c2[nH]c(=O)sc12)C1CCCCC1 [Example 75, N^1-Cyclohexyl-N^1-(2-{[2-(4-hydroxy-2-oxo-2,3-dihydro-1,3-benzothiazol-7-yl)ethyl]amino}ethyl)-N^3-[(2R)-2-hydroxy-2-phenylethyl]-β-alaninamide bis-trifluoroacetic acid salt] |
| 0.68 | O=C(CCNCCc1ccc2c(c1)OCO2)N(CCNCCc1ccc(O)c2[nH]c(=O)sc12)C1CCCCC1 [Example 76, N^3-[2-(1,3-Benzodioxol-5-yl)ethyl]-N^1-cyclohexyl-N^1-(2-{[2-(4-hydroxy-2-oxo-2,3-dihydro-1,3-benzothiazol-7-yl)ethyl]amino}ethyl)-β-alaninamide bis-trifluoroacetic acid salt] |
| 0.54 | O=C(CCNCCc1nc2ccccc2[nH]1)N(CCNCCc1ccc(O)c2[nH]c(=O)sc12)C1CCCCC1 [Example 77, N^3-[2-(1H-Benzimidazol-2-yl)ethyl]-N^1-cyclohexyl-N^1-(2-{[2-(4-hydroxy-2-oxo-2,3-dihydro-1,3-benzothiazol-7-yl)ethyl]amino}ethyl)-β-alaninamide tris-trifluoroacetic acid salt] |
| 0.84 | O=C(CCNCCc1cc(F)ccc1F)N(CCNCCc1ccc(O)c2[nH]c(=O)sc12)C1CCCCC1 [Example 79, N^1-Cyclohexyl-N^3-[2-(2,5-difluorophenyl)ethyl]-N^1-(2-{[2-(4-hydroxy-2-oxo-2,3-dihydro-1,3-benzothiazol-7-yl)ethyl]amino}ethyl)-β-alaninamide bis-trifluoroacetic acid salt] |
| 0.86 | O=C(CCNCCC(F)(F)F)N(CCNCCc1ccc(O)c2[nH]c(=O)sc12)C1CCCCC1 [Example 80, N^1-Cyclohexyl-N^1-(2-{[2-(4-hydroxy-2-oxo-2,3-dihydro-1,3-benzothiazol-7-yl)ethyl]amino}ethyl)-N^3-(3,3,3-trifluoropropyl)-β-alaninamide bis-trifluoroacetic acid salt] |
| 0.86 | O=C(CCNCCc1cccc(C(F)(F)F)c1)N(CCNCCc1ccc(O)c2[nH]c(=O)sc12)C1CCCCCC1 [Example 82, N^1-Cycloheptyl-N^1-(2-{[2-(4-hydroxy-2-oxo-2,3-dihydro-1,3-benzothiazol-7-yl)ethyl]amino}ethyl)-N^3-{2-[3-(trifluoromethyl)phenyl]ethyl}-β-alaninamide bis-trifluoroacetic acid salt] |
| 0.71 | O=C(CCNCCc1cc(F)ccc1F)N(CCNCCc1ccc(O)c2[nH]c(=O)sc12)C1CCCCCC1 [Example 83, N^1-Cycloheptyl-N^3-[2-(2,5-difluorophenyl)ethyl]-N^1-(2-{[2-(4-hydroxy-2-oxo-2,3-dihydro-1,3-benzothiazol-7-yl)ethyl]amino}ethyl)-β-alaninamide bis-trifluoroacetic acid salt] |
| 0.89 | O=C(CCNCCc1c(F)cccc1F)N(CCNCCc1ccc(O)c2[nH]c(=O)sc12)C1CCCCCC1 [Example 84, N^1-Cycloheptyl-N^3-[2-(2,6-difluorophenyl)ethyl]-N^1-(2-{[2-(4-hydroxy-2-oxo-2,3-dihydro-1,3-benzothiazol-7-yl)ethyl]amino}ethyl)-β-alaninamide bis-trifluoroacetic acid salt] |
| 0.65 | Cc1cccc(CCNCCC(=O)N(CCNCCc2ccc(O)c3[nH]c(=O)sc23)C2CCCCCC2)c1 [Example 85, N^1-Cycloheptyl-N^1-(2-{[2-(4-hydroxy-2-oxo-2,3-dihydro-1,3-benzothiazol-7-yl)ethyl]amino}ethyl)-N^3-[2-(3-methylphenyl)ethyl]-β-alaninamide bis-trifluoroacetic acid salt] |
| 0.43 | COc1ccc(CCNCCC(=O)N(CCNCCc2ccc(O)c3[nH]c(=O)sc23)C2CCCCCC2)cc1OC [Example 86, N^1-Cycloheptyl-N^3-[2-(3,4-dimethoxyphenyl)ethyl]-N^1-(2-{[2-(4-hydroxy-2-oxo-2,3-dihydro-1,3-benzothiazol-7-yl)ethyl]amino}ethyl)-β-alaninamide bis-trifluoroacetic acid salt] |

| SMILES | β2 Int Act |
| --- | --- |
| O=C(CCNCCc1cc(F)cc(F)c1)N(CCNCCc1ccc(O)c2[nH]c(=O)sc12)C1CCCCC1 [Example 78, N^1-Cyclohexyl-N^3-[2-(3,5-difluorophenyl)ethyl]-N^1-(2-{[2-(4-hydroxy-2-oxo-2,3-dihydro-1,3-benzothiazol-7-yl)ethyl]amino}ethyl)-β-alaninamide bis-trifluoroacetic acid salt] | 0.91 |
| O=C(CCNCCc1cccc(F)c1F)N(CCNCCc1ccc(O)c2[nH]c(=O)sc12)C1CCCCC1 [Example 81, N^1-Cyclohexyl-N^3-[2-(2,3-difluorophenyl)ethyl]-N^1-(2-{[2-(4-hydroxy-2-oxo-2,3-dihydro-1,3-benzothiazol-7-yl)ethyl]amino}ethyl)-β-alaninamide bis-trifluoroacetic acid salt] | 0.89 |
